Each structure is given as a SMILES string.

The nature of the data set: gradient 5% acetonitrile 3 min, to 50% in 2 min, to 85% in 15 min, held 3 min, 100 µL/min. The note with it: column: Zorbax Extend-C18 2.1 x 50 mm; eluents: water / acetonitrile, 0.1% formic acid. The essentials: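 Values are retention times taken from adduct peaks that software picked and an analyst inspected. The pure standards were run as mixtures of ~100 molecules on HPLC linked to a quadrupole time-of-flight mass spectrometer, in positive and negative ionization mode. A Zorbax Extend-C18 column (2.1 × 50 mm, 1.8 μm) was used at 100 μL/min with water and acetonitrile, each including 0.1% formic acid.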
Molecule `O=C(Cc1csc2nc(-c3ccccc3)cn12)NCc1ccccc1Cl` gave an RP-LC retention time of 832 s.
Under `Cc1ccc(NC(=O)C(C)C2CCN(C(=O)Nc3ccc(F)cc3)CC2)cc1C` (centres undefined) stands 928 s; under `COc1ccc(-c2cn3c(C(=O)Nc4ccc5c(c4)OCCO5)csc3n2)cc1`, 813 s; under `O=c1c2cnc3nc(-c4ccccc4)nn3c2ccn1CCc1c[nH]c2ccc(F)cc12`, 941 s.
On to `Cc1csc(NC(=O)Cn2ccc3ccc(-c4nnc(C)o4)cc32)n1`, for which the RP-LC retention time turned out to be 716 s.
Consider `COc1ccc(N2C(=O)CCC(C(=O)NC3CCCCCC3)C2c2ccc(F)cc2)cc1` (centres undefined), for which the RP-LC retention time turned out to be 839 s.
Molecule `Fc1ccc(OCc2nnc3sc(Cc4ccc5c(c4)OCCO5)nn23)cc1` displayed an RP-LC retention time of 913 s.
Under `CCCN(CCC)C1CCc2cccc(OC)c2C1` (centres undefined) stands 762 s; under `CCCN1C(=O)c2cc(S(=O)(=O)Nc3ccc(F)cc3F)ccc2Oc2cccnc21`, 1050 s; under `O=c1c(NCc2ccccc2Cl)nc2ccncc2n1Cc1ccccc1`, 747 s.
In turn, `CCn1c(N2CCN(C(=O)Nc3cc(OC)c(OC)c(OC)c3)CC2)nc2ccccc21` came in with an RP-LC retention time of 623 s.
The molecule `Nc1cc(C(F)(F)F)c(-c2cc(N3CCOCC3)nc(N3CCOCC3)n2)cn1` showed an RP-LC retention time of 650 s.
The molecule `CC(=O)N1CCC(C(=O)Nc2ccc(OCc3nnc(-c4ccc(Cl)cc4)o3)cc2)CC1` had an RP-LC retention time of 758 s.
Consider `CC(C)N1CCN(c2cc(-c3nc(-c4cccc(F)c4)no3)c3ccccc3n2)CC1`, for which the RP-LC retention time is 890 s.
Under `CCOC(=O)c1c(C)oc2ncnc(NC3CCCc4ccccc43)c12` (centres undefined) stands 1310 s; under `Cc1ccc(CN2CCCC(c3nc(C(C)C)no3)CCNC(=O)CC2)s1` (centres undefined), 661 s.
Under `CCOC(=O)c1noc2nc(C)nc(N3CCN(c4cccc(Cl)c4)CC3)c12` stands 1220 s.
As for `CCOC(=O)N1CCN(C(=O)CSc2ncnc3c2oc2ccccc23)CC1`, the RP-LC retention time was 742 s.
In turn, `CCOc1ccc(N2CCCCn3c2nc2c3c(=O)n(CCC(C)C)c(=O)n2C)cc1` returned an RP-LC retention time of 1150 s.
Take `COc1cccc(-c2cn3c(C(=O)Nc4ncccc4C)csc3n2)c1`: the RP-LC retention time was found to be 732 s.
Take `CCOc1cccc(CN2CCc3nc(N4CCN(c5ccccc5)CC4)ncc3C2)c1`: the RP-LC retention time was 785 s.
Take `CN1CCN(c2nc3ccc(NC(=O)C4CC(=O)N(c5ccccc5)C4)cc3s2)CC1` (centres undefined): the RP-LC retention time turned out to be 561 s.
As for `O=C(c1ccsc1)N1CCC(c2nncn2Cc2ccccc2)CC1`, the RP-LC retention time was 663 s.
Molecule `O=C1C2CCCN2C(c2ccncc2)N1c1cccc(Cl)c1` (centres undefined) yielded an RP-LC retention time of 587 s.
For `CSc1cccc(NS(=O)(=O)c2cc3c(s2)CCN(C(=O)C2CC2)C3)c1`, the RP-LC retention time is 860 s.
As to `O=C(Nc1cccc(F)c1)C1CCCN(c2nnc3ccc(Cl)cn23)C1` (centres undefined), the RP-LC retention time came to 806 s.
In turn, `COC(=O)C1=CN(c2cccc(C(F)(F)F)c2)c2ccccc2S1(=O)=O` yielded an RP-LC retention time of 900 s.
Molecule `COc1ccc(NC(=O)CN2CCC(C(=O)NCc3ccc(F)cc3F)CC2)c(OC)c1` registered an RP-LC retention time of 578 s.
With `CCN(CC)CCNc1ncnc2c1cnn2-c1cccc(Cl)c1`, the RP-LC retention time stood at 684 s.
`Cc1ccc(-c2nc(C)cc(OCC(=O)NCc3ccc4c(c3)OCO4)n2)cc1` displayed an RP-LC retention time of 919 s.
In turn, `COc1ccc(C2CC(=O)N(c3ccc4c(c3)OCCO4)C(=O)C2)cc1` displayed an RP-LC retention time of 833 s.
The value for `CCc1cc(N2CCN(C(=O)COc3ccc(Cl)cc3)CC2)nc2nncn12` was 651 s.
`COc1ccc(-n2ccn3cc(-c4ccc5c(c4)OCO5)nc3c2=O)cc1OC` came in with an RP-LC retention time of 733 s.
Molecule `CCC(=O)Nc1ccc(S(=O)(=O)NC2CCN(c3ccc(=O)n(CC4CC4)n3)C2)cc1` (centres undefined) displayed an RP-LC retention time of 712 s.
`CSc1ccc(CN2CC(c3nc(C)no3)C2)cc1` displayed an RP-LC retention time of 530 s.
`COc1ccc(-n2nc3c(N4CCCC(C(=O)NCCc5cccs5)C4)nnc(C)c3c2C)cc1` (centres undefined) registered an RP-LC retention time of 722 s.
Consider `Cc1noc([C@@H]2CC(F)(F)CN2S(=O)(=O)c2ccccc2)n1`, for which the RP-LC retention time was 858 s.
The molecule `O=C(NCCCN1CCCC1=O)c1nc2ccccn2c1-c1ccc(Cl)cc1` gave an RP-LC retention time of 690 s.
As to `O=C(CN1C(=O)CCS(=O)(=O)c2ccccc21)Nc1ccc(F)cc1`, the RP-LC retention time was 748 s.
For the molecule `CCCN1CCN(C(=O)Cc2ccc3nc(NC(C)=O)sc3c2)CC1`, the RP-LC retention time is 578 s.
As to `O=C(CN1C(=O)c2ccccc2C1=O)NCC1(c2cccs2)CCCCC1`, the RP-LC retention time amounted to 936 s.
For the molecule `O=C(NCc1ccccc1Cl)c1ccc(NC(=O)C2CCC2)cc1N1CCOCC1`, the RP-LC retention time came out at 873 s.
As to `CCc1cccc(C)c1NC(=O)Cn1nc(N2CCC(C)CC2)c2ccccc2c1=O`, the RP-LC retention time was 1160 s.
For `COc1ccc(-c2cc(C(=O)NC3CCCCC3)nn2C2CCS(=O)(=O)C2)cc1` (centres undefined), the RP-LC retention time is 885 s.
For the molecule `O=C(NCc1cccc(F)c1)N1CCC(Nc2cccnc2)C1` (centres undefined), the RP-LC retention time was 606 s.
The molecule `O=C(CN1CCN(Cc2ccc(F)cc2)C(=O)C1=O)N1CCN(Cc2ccccc2)CC1` had an RP-LC retention time of 603 s.
With `CCOc1nn(CC)cc1C(=O)NCCc1c[nH]c2ccccc12`, the RP-LC retention time stood at 736 s.
Take `O=C(c1cccs1)N1CCN(S(=O)(=O)c2cc(-c3noc(C4CCC4)n3)cs2)CC1`: the RP-LC retention time came to 998 s.
On to `CCn1ccc2sc(C)c(C(=O)NCc3cc(C)ccc3C)c2c1=O`, for which the RP-LC retention time worked out at 959 s.
Turning to `CCNC(=O)C1CCN(S(=O)(=O)c2c(C)[nH]c(C)c2C(=O)N2CCCCC2)CC1`, the RP-LC retention time came to 624 s.
Molecule `CC(C)c1ccc(S(=O)(=O)N2CCC3(CC2)c2nccn2CCN3C)cc1` showed an RP-LC retention time of 720 s.
In turn, `CCCOC(=O)C1=C(C)NC2=C(C(=O)C(C(=O)OC)C(C)C2)C1c1ccccc1OC` (centres undefined) returned an RP-LC retention time of 906 s.
Under `CCOC(=O)c1ccc(NC(=O)c2cccc([N+](=O)[O-])c2)cc1` stands 890 s.
Under `CCc1nn(CC)c(=O)c2cc(S(=O)(=O)NCc3ccc(F)cc3Cl)cn12` stands 1020 s; under `Cn1nc(-c2ccccc2)cc1N`, 599 s; under `Cc1ccc(-c2cn3ccccc3n2)cc1NS(=O)(=O)c1ccc(Cl)cc1`, 692 s.
Under `Cc1nnc(-c2nnc(NCC3CCCCC3)c3ccccc23)o1` stands 772 s.
As to `Cc1sc(NC(=O)c2ccccc2)nc1-c1ccc2c(c1)N(C)C(=O)CO2`, the RP-LC retention time was 952 s.
For the molecule `COCCn1nnnc1C1CC2(CCOCC2)C(=O)N1CCc1ccc(OC)c(OC)c1` (centres undefined), the RP-LC retention time stood at 685 s.
On to `COc1ccccc1-c1nc(-c2ccc3c(c2)nnn3CCN2CCCCC2)no1`, for which the RP-LC retention time amounted to 663 s.
Take `COc1ccc(-c2nc(C)cc(C)c2CNS(=O)(=O)c2cccc(F)c2)cc1`: the RP-LC retention time stood at 657 s.
For the molecule `Cc1cc(N2CCC(C)CC2)n2nc(CN3CCN(C(C)C)CC3)nc2n1`, the RP-LC retention time turned out to be 590 s.
Molecule `CCCn1c(=O)c2c(C(=O)NCc3ccc(Cl)cc3)cc(=O)n(CCC)c2n(C)c1=O` gave an RP-LC retention time of 1060 s.
With `COc1cc(OC)cc(C(=O)N2CCC(C(=O)NCCc3csc(-c4cccs4)n3)CC2)c1`, the RP-LC retention time stood at 792 s.
In the case of `Cc1ccccc1Nc1c(-c2cc(Br)ccc2F)nc2ccc(Cl)cn12`, the RP-LC retention time was determined as 1100 s.
In the case of `O=C(CSc1ccc(-c2cccc([N+](=O)[O-])c2)nn1)NCc1cccs1`, the RP-LC retention time amounted to 766 s.
`O=C(c1ccoc1)N1CCN(S(=O)(=O)c2cc(-c3noc(C4CCC4)n3)cs2)CC1` showed an RP-LC retention time of 943 s.
The molecule `O=C(C1CC1)N1CCc2sc(S(=O)(=O)NCc3ccc4c(c3)OCO4)cc2C1` registered an RP-LC retention time of 812 s.
The value for `CCCCNc1cc(C)nc2nc(-c3ccc(C(C)(C)C)cc3)nn12` was 1100 s; that for `Cc1cc(C)cc(N2CCC(NC(=O)Nc3cc(C)ccc3C)C2=O)c1` (centres undefined) was 955 s.
Turning to `Cc1cc(C)n(C(C)CC(=O)N2CCN(S(=O)(=O)c3ccc(Cl)cc3)CC2)n1` (centres undefined), the RP-LC retention time worked out at 750 s.
`CCOc1ccc(CNC(=O)Cn2ccc3ccc(N4CCOCC4)nc32)cc1` displayed an RP-LC retention time of 894 s.
`COc1cn(CC(=O)Nc2cccc([N+](=O)[O-])c2)c(CN2CCC(C)CC2)cc1=O` returned an RP-LC retention time of 567 s.
`CCOC(=O)N1CCN(C(=O)C2CC2c2ccc(F)cc2)CC1` (centres undefined): the RP-LC retention time was 755 s.
`CC1CS(=O)(=O)N(c2ccc(C(=O)NCCc3c[nH]c4ccccc34)cc2)C1=O` (centres undefined) had an RP-LC retention time of 780 s.
For `Cc1noc(C)c1CC(=O)N1CCc2c(c(-c3nncn3C)nn2C)C1`, the RP-LC retention time is 591 s.
In turn, `COCCN1C(=O)[C@H]2CN(Cc3cccc4[nH]ccc34)C[C@H]2C1=O` registered an RP-LC retention time of 583 s.
The value for `CN(C)CC1CCC/C(=C\c2ccc(OC(=O)/C=C/c3ccccc3)cc2)C1=O` (centres undefined) was 796 s; that for `CCN1CCN(CCCNC(=O)C2CCN(c3nc4cccnc4n(CC)c3=O)CC2)CC1` was 580 s.

The record behind these values is the METLIN SMRT retention time set (Domingo-Almenara et al. 2019).
